One series has as its target T1, C-X-C chemokine receptor type 2 (Homo sapiens, UniProt P25025). Also: in other assays of this panel Not Active means under 50% inhibition at 10 µM.
T1 sequence (P25025 whole entry): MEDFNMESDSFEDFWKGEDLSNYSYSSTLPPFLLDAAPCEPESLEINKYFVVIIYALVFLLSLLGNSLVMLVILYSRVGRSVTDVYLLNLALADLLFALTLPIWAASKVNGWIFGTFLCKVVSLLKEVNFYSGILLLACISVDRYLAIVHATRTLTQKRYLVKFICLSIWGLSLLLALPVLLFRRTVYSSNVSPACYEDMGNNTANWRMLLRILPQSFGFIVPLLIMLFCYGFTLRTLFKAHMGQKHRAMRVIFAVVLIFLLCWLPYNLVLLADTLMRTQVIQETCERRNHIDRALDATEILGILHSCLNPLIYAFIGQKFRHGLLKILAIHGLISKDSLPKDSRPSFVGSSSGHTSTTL
Assay: not given
Type of series: cell membranes, Membrane. As to conditions: cho-k1.
Sequence of Melanocortin receptor 4 (P32245 whole entry): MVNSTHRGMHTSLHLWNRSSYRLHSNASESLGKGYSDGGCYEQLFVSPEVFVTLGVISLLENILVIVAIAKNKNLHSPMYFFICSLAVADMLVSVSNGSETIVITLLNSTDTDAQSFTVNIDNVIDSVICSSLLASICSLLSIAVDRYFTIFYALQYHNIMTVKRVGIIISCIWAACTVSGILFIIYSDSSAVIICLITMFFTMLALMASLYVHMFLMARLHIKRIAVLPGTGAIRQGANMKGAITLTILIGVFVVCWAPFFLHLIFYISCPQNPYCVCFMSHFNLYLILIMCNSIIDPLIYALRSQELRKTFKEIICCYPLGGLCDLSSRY
Sequence of Insulin receptor (P15127 27-759 limits assumed): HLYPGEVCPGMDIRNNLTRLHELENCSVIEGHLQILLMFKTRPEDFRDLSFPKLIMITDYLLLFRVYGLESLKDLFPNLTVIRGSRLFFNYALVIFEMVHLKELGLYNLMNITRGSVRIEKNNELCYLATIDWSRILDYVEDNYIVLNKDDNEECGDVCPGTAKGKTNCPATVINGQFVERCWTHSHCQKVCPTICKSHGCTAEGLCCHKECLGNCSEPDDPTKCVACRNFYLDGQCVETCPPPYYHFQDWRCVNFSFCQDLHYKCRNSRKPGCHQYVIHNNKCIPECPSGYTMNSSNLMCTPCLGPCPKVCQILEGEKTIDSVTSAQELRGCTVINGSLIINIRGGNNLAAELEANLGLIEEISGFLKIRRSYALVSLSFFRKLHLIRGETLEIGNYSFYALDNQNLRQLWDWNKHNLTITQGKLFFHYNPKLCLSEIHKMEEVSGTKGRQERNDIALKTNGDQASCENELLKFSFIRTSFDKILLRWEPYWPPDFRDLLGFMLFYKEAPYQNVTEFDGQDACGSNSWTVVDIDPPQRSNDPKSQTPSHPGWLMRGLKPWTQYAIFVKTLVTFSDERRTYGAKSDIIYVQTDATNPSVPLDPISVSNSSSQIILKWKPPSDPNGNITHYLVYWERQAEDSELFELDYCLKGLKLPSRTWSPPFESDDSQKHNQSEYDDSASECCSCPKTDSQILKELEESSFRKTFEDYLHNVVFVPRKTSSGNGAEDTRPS
Sequence of Insulin receptor (P15127 764-1383 limits assumed): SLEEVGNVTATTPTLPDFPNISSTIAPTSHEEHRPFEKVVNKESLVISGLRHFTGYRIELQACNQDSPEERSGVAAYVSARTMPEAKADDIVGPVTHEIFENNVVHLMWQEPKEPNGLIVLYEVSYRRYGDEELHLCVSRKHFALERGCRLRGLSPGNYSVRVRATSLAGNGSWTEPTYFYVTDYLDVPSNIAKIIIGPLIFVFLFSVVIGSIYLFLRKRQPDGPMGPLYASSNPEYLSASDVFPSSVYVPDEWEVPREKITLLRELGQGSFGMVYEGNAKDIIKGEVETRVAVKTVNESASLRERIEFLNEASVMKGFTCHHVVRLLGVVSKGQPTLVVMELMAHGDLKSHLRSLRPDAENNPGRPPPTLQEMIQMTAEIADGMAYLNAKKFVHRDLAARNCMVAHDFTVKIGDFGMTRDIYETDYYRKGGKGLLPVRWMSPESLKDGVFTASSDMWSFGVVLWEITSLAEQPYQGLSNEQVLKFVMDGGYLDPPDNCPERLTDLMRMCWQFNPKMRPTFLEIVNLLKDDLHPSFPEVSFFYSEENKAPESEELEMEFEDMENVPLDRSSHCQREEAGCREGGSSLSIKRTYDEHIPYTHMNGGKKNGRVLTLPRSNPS
Sequence of Receptor tyrosine-protein kinase erbB-2 (P04626 whole entry): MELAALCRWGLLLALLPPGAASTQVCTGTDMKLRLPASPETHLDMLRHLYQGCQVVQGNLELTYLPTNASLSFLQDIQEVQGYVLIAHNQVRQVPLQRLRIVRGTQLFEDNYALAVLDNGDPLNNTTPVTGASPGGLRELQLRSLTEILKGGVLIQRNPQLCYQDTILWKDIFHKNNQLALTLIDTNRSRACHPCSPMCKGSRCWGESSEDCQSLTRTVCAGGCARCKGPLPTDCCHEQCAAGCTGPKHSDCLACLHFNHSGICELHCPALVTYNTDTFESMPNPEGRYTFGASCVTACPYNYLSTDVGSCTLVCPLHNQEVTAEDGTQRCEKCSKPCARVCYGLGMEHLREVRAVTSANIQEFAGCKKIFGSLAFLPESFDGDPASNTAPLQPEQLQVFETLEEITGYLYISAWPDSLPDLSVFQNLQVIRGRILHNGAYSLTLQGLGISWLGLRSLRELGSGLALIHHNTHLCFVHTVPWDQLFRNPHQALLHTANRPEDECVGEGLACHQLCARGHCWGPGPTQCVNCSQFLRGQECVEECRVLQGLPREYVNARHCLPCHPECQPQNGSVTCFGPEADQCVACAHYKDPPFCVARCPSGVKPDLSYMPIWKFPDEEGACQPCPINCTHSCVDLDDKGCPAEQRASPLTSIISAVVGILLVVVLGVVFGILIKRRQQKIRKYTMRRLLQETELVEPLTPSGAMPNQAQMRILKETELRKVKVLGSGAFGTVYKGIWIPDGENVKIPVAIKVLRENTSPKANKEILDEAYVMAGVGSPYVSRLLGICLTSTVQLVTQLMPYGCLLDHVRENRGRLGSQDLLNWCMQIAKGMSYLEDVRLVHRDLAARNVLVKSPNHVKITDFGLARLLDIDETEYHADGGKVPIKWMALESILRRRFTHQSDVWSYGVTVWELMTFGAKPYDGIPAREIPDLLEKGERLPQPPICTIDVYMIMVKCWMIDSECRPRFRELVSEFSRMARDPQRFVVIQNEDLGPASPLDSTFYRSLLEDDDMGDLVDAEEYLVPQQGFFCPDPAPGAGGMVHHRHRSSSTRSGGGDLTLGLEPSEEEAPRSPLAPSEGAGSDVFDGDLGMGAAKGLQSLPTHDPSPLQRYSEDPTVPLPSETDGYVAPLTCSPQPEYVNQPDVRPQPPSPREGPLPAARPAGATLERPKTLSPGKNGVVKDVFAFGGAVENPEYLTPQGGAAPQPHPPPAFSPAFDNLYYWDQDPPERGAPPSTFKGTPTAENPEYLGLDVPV
Turning to `C#C[C@]1(O)CC[C@H]2[C@@H]3CCc4cc(OC)ccc4[C@H]3CC[C@@]21C` [MESTRANOL], the IC50 entry is reported as “Not Active”.

Take `C#C[C@]1(OC(C)=O)CC[C@H]2[C@@H]3CCC4=CC(=O)CC[C@@H]4[C@H]3CC[C@@]21C` [NORETHINDRONE ACETATE]: the IC50 entry is “Not Active”.

For `O=C(C1CCCCC1)N1CC(=O)N2CCc3ccccc3C2C1` (stereo not given) [PRAZIQUANTEL], the IC50 entry is listed as “Not Active”.

In the case of `CCN(CC)CCOC(=O)c1ccc(N)cc1` [PROCAINE], the IC50 entry was “Not Active”.

As for `CCCN(CCC)C(=O)C(CCC(=O)O)NC(=O)c1ccccc1` (stereo not given) [PROGLUMIDE], the IC50 result is “Not Active”.

Tested on in another series: not listed separately
In words: DRUGMATRIX: GABAA, Chloride Channel, TBOB radioligand binding (ligand: [3H] TBOB). Type of series: cell membranes, Rattus norvegicus, Wistar, Cerebral cortex, Membrane. As to conditions: Not Active = under 50% inhibition at 10 µM.
Consider `C#C[C@]1(O)CC[C@H]2[C@@H]3CCc4cc(OC)ccc4[C@H]3CC[C@@]21C` [MESTRANOL], for which the IC50 entry is recorded as “Not Active” and the Ki result is listed as “Not Active”.

As for `C#C[C@]1(OC(C)=O)CC[C@H]2[C@@H]3CCC4=CC(=O)CC[C@@H]4[C@H]3CC[C@@]21C` [NORETHINDRONE ACETATE], the IC50 entry was “Not Active” and the Ki entry was “Not Active”.

On to `O=C(C1CCCCC1)N1CC(=O)N2CCc3ccccc3C2C1` (stereo not given) [PRAZIQUANTEL], for which the IC50 result was “Not Active” and the Ki entry is “Not Active”.

Regarding `CCN(CC)CCOC(=O)c1ccc(N)cc1` [PROCAINE], the IC50 entry is “Not Active” and the Ki entry is “Not Active”.

Consider `CCCN(CCC)C(=O)C(CCC(=O)O)NC(=O)c1ccccc1` (stereo not given) [PROGLUMIDE], for which the IC50 entry was “Not Active” and the Ki result is “Not Active”.

The next series has as its target Insulin receptor (Rattus norvegicus, UniProt P15127). Also: in other assays of this panel Not Active means under 50% inhibition at 10 µM.
Assay: not given
Type of series: cell membranes, Wistar, Liver, Membrane.
Conditions: not given
In the case of `C#C[C@]1(O)CC[C@H]2[C@@H]3CCc4cc(OC)ccc4[C@H]3CC[C@@]21C` [MESTRANOL], the IC50 result is given as “Not Active”.

Consider `C#C[C@]1(OC(C)=O)CC[C@H]2[C@@H]3CCC4=CC(=O)CC[C@@H]4[C@H]3CC[C@@]21C` [NORETHINDRONE ACETATE], for which the IC50 entry is “Not Active”.

`O=C(C1CCCCC1)N1CC(=O)N2CCc3ccccc3C2C1` (stereo not given) [PRAZIQUANTEL]: the IC50 result was “Not Active”.

`CCN(CC)CCOC(=O)c1ccc(N)cc1` [PROCAINE]: the IC50 result was “Not Active”.

Regarding `CCCN(CCC)C(=O)C(CCC(=O)O)NC(=O)c1ccccc1` (stereo not given) [PROGLUMIDE], the IC50 entry is recorded as “Not Active”.

The next series concerns the target Melanocortin receptor 4 (Homo sapiens, UniProt P32245). Also: in other assays of this panel Not Active means under 50% inhibition at 10 µM.
Assay: not given
Type of series: cell membranes, Membrane. The conditions noted are these: hek293.
Regarding `C#C[C@]1(O)CC[C@H]2[C@@H]3CCc4cc(OC)ccc4[C@H]3CC[C@@]21C` [MESTRANOL], the IC50 entry is on record as “Not Active”.

Take `C#C[C@]1(OC(C)=O)CC[C@H]2[C@@H]3CCC4=CC(=O)CC[C@@H]4[C@H]3CC[C@@]21C` [NORETHINDRONE ACETATE]: the IC50 entry is given as “Not Active”.

As for `O=C(C1CCCCC1)N1CC(=O)N2CCc3ccccc3C2C1` (stereo not given) [PRAZIQUANTEL], the IC50 result is recorded as “Not Active”.

On to `CCN(CC)CCOC(=O)c1ccc(N)cc1` [PROCAINE], for which the IC50 result is “Not Active”.

Regarding `CCCN(CCC)C(=O)C(CCC(=O)O)NC(=O)c1ccccc1` (stereo not given) [PROGLUMIDE], the IC50 result is “Not Active”.

Tested on in the next series: not listed separately
As to the kind of experiment: DRUGMATRIX: Phosphodiesterase PDE3 enzyme inhibition (substrate: [3H]cAMP + cAMP). Type of series: tissue-based, Homo sapiens. As to conditions: platelet; Not Active = under 50% inhibition at 10 µM.
With `C#C[C@]1(O)CC[C@H]2[C@@H]3CCc4cc(OC)ccc4[C@H]3CC[C@@]21C` [MESTRANOL], the IC50 entry was “Not Active” and the Ki entry was “Not Active”.

`C#C[C@]1(OC(C)=O)CC[C@H]2[C@@H]3CCC4=CC(=O)CC[C@@H]4[C@H]3CC[C@@]21C` [NORETHINDRONE ACETATE]: the IC50 entry is “Not Active” and the Ki result is listed as “Not Active”.

As for `O=C(C1CCCCC1)N1CC(=O)N2CCc3ccccc3C2C1` (stereo not given) [PRAZIQUANTEL], the IC50 entry is “Not Active” and the Ki result was “Not Active”.

On to `CCN(CC)CCOC(=O)c1ccc(N)cc1` [PROCAINE], for which the IC50 result is “Not Active” and the Ki entry was “Not Active”.

On to `CCCN(CCC)C(=O)C(CCC(=O)O)NC(=O)c1ccccc1` (stereo not given) [PROGLUMIDE], for which the IC50 entry was “Not Active” and the Ki entry was “Not Active”.

A further series addresses Receptor tyrosine-protein kinase erbB-2 (Homo sapiens, UniProt P04626). In words: biochemical. In kind it is cell-based, Insect cells. The conditions noted are these: insect cells.
For `C#C[C@]1(O)CC[C@H]2[C@@H]3CCc4cc(OC)ccc4[C@H]3CC[C@@]21C` [MESTRANOL], the IC50 entry is “Not Active”.

As to `C#C[C@]1(OC(C)=O)CC[C@H]2[C@@H]3CCC4=CC(=O)CC[C@@H]4[C@H]3CC[C@@]21C` [NORETHINDRONE ACETATE], the IC50 entry is “Not Active”.

For `O=C(C1CCCCC1)N1CC(=O)N2CCc3ccccc3C2C1` (stereo not given) [PRAZIQUANTEL], the IC50 result is on record as “Not Active”.

For `CCN(CC)CCOC(=O)c1ccc(N)cc1` [PROCAINE], the IC50 entry is recorded as “Not Active”.

On to `CCCN(CCC)C(=O)C(CCC(=O)O)NC(=O)c1ccccc1` (stereo not given) [PROGLUMIDE], for which the IC50 entry was “Not Active”.

A further series concerns the target T2, Receptor-type tyrosine-protein phosphatase C (Homo sapiens, UniProt P08575).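 Also: inhibition of CD45 enzyme activity measured using DiFMUP as substrate; in other assays of this panel Not Active means under 50% inhibition at 10 µM.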
T2 sequence (P08575 whole entry): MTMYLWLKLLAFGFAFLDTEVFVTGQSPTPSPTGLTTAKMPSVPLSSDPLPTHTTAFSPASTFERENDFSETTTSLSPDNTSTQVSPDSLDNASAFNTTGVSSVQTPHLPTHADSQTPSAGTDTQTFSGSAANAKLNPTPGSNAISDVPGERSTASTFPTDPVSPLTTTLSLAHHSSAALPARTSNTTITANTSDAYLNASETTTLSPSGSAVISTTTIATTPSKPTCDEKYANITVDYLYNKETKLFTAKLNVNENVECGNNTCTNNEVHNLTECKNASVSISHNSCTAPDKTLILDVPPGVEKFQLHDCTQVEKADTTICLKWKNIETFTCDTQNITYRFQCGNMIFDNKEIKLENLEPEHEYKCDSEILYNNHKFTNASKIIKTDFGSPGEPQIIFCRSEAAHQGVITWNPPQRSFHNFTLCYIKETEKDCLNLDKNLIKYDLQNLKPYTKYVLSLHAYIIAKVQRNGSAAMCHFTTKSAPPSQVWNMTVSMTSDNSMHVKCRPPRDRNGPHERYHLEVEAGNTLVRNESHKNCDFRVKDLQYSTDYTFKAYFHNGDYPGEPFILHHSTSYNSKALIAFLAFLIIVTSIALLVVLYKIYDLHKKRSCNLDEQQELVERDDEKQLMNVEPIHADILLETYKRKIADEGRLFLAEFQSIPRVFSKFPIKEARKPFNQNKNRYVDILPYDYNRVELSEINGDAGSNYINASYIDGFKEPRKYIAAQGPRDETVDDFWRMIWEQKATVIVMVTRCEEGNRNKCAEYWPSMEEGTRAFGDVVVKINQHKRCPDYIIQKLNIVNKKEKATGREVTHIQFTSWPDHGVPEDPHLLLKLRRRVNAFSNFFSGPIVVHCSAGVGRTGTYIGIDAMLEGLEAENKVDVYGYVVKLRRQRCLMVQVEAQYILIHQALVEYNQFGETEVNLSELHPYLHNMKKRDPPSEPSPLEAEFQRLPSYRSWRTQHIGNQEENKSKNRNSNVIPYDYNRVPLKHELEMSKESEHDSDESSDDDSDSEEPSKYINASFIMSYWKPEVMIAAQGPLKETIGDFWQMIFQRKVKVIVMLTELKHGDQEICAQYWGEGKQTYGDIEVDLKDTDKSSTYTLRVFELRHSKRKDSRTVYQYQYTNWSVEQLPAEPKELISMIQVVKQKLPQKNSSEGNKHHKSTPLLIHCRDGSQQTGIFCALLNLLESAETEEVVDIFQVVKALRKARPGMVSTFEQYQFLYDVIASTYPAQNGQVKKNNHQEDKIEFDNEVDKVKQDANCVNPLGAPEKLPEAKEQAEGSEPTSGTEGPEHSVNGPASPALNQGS
Assay: not given
Further details: species or system Escherichia coli.
Conditions: not given
In the case of `C#C[C@]1(O)CC[C@H]2[C@@H]3CCc4cc(OC)ccc4[C@H]3CC[C@@]21C` [MESTRANOL], the IC50 entry was “Not Active”.

As to `C#C[C@]1(OC(C)=O)CC[C@H]2[C@@H]3CCC4=CC(=O)CC[C@@H]4[C@H]3CC[C@@]21C` [NORETHINDRONE ACETATE], the IC50 result is given as “Not Active”.

In the case of `O=C(C1CCCCC1)N1CC(=O)N2CCc3ccccc3C2C1` (stereo not given) [PRAZIQUANTEL], the IC50 result was “Not Active”.

In the case of `CCN(CC)CCOC(=O)c1ccc(N)cc1` [PROCAINE], the IC50 result was “Not Active”.

Turning to `CCCN(CCC)C(=O)C(CCC(=O)O)NC(=O)c1ccccc1` (stereo not given) [PROGLUMIDE], the IC50 entry is recorded as “Not Active”.

For a further series, the target named is Cytochrome P450 2E1 (Homo sapiens, UniProt P05181). Also: in other assays of this panel Not Active means under 50% inhibition at 10 µM.
Sequence of Cytochrome P450 2E1 (P05181 whole entry): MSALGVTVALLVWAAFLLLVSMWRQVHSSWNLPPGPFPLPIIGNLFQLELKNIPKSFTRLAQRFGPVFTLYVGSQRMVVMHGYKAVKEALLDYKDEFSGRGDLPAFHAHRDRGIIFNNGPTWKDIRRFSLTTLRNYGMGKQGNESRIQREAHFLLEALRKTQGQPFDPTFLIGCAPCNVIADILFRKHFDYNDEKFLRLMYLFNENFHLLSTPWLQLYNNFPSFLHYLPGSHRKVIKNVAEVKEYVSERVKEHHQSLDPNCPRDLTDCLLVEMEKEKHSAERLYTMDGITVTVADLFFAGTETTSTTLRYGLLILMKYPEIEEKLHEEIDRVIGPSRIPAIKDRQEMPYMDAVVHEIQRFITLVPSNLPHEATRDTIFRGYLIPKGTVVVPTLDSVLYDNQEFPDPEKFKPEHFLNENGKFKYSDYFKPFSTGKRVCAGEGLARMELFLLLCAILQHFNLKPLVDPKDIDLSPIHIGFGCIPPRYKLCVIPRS
Assay: not given
As to conditions: bti-tn-5b1-4.
On to `C#C[C@]1(O)CC[C@H]2[C@@H]3CCc4cc(OC)ccc4[C@H]3CC[C@@]21C` [MESTRANOL], for which the IC50 entry was “Not Active” and the Ki entry is reported as “Not Active”.

As for `C#C[C@]1(OC(C)=O)CC[C@H]2[C@@H]3CCC4=CC(=O)CC[C@@H]4[C@H]3CC[C@@]21C` [NORETHINDRONE ACETATE], the IC50 result was “Not Active” and the Ki entry was “Not Active”.

`O=C(C1CCCCC1)N1CC(=O)N2CCc3ccccc3C2C1` (stereo not given) [PRAZIQUANTEL]: the IC50 result was “Not Active” and the Ki entry was “Not Active”.

Consider `CCN(CC)CCOC(=O)c1ccc(N)cc1` [PROCAINE], for which the IC50 entry is recorded as “Not Active” and the Ki entry is on record as “Not Active”.

Take `CCCN(CCC)C(=O)C(CCC(=O)O)NC(=O)c1ccccc1` (stereo not given) [PROGLUMIDE]: the IC50 entry is on record as “Not Active” and the Ki result is “Not Active”.
